We go through 4 compounds from US12569480B2, “Methods of treating fibrosis using compounds that promote glucose oxidation” (IMBRIA PHARMACEUTICALS, INC., priority 2019, dated 2026).

In test [1] the test system is TAC mice. The experiment in a line: TAC mice, 6-week minipump treatment: cardiac fibrosis, Masson's trichrome. In kind it is in vivo. To be noted: 6 weeks, TMZ 6, NA 2.4, CV-8814 7.5, CV-8972 10 mg/kg/day, TAC control 10.7±1.
Test [2] concerns TAC mice. The experiment in a line: TAC mice, 6-week minipump treatment: echocardiography. The test is classed as in vivo. As to conditions: in words.
In test [3] the test system is TAC mice. Nature of the test: TAC mice, 6-week minipump treatment: left ventricular pressure by Mikro-tip catheter. The test is classed as in vivo. To be noted: 6 weeks, CV-8972 10 mg/kg/day, TAC control −5697±417.
Test [4] concerns TAC mice. Nature of the test: TAC mice, 6-week minipump treatment: heart weight and heart weight/body weight. The test is classed as in vivo. To be noted: in words, 6 weeks, NA 2.4 mg/kg/day.
Test [5] relates to isolated hearts after ischemia-reperfusion. The experiment in a line: Ischemia-reperfusion (IR), isolated hearts (Langendorff): cardiac function (left ventricular pressure). More on the design: species or system mice. To be noted: in words; TMZ 20 μM; TNF 2 μM each; TNS 20 μM each.
Procedure: FIG. 38 is a schematic of the ischemia-reperfusion (IR) method used to analyze the effects of selected compositions on coronary flow, cardiac function, and infarct size. […] At 20 minutes, ischemia was induced, and coronary flow was analyzed. At 50 minutes, reperfusion was initiated to restore blood flow. At 170 minutes, coronary flow and cardiac function was analyzed, and then the hearts were preserved, sectioned, and infarct size was measured by triphenyltetrazolium chloride (TTC) staining.
[6] abbreviates: to the end of the study (6 weeks).

For the compound `COc1ccc(CN2CCN(CCO)CC2)c(OC)c1OC` [CV-8814, 2-(4-(2,3,4-trimethoxybenzyl)piperazin-1-yl)ethan-1-ol], in the test with TAC mice [1], the “cardiac fibrosis (fibrotic area to whole heart tissue area)” value is listed as 6.6±0.6%. Besides, the EF entry in the test with TAC mice [2] (3-weeks after TAC) is “significantly increased”; in the test with TAC mice [2] (setting [6]) it was “protective effect was sustained”.
As for `COc1ccc(CN2CCN(CCOC(=O)c3cccnc3)CC2)c(OC)c1OC` [CV-8972, 2-(4-(2,3,4-trimethoxybenzyl)piperazin-1-yl)ethyl nicotinate], the EF result is reported as “significantly increased” with TAC mice [2] (3-weeks after TAC) and “protective effect was sustained” in the test on TAC mice [2] (setting [6]). Further, the “−dp/dtm” value with TAC mice [3] is on record as −4126±339 mm Hg/sec.
On to `O=C(O)c1cccnc1` [NA, nicotinic acid, reference compound], for which, in the test on TAC mice [2] (TAC mice, NA 2.4 mg/kg/day), the IVSd result is recorded as “decreased IVSd” and the LV mass entry is given as “no effect on LV mass”. Further, in the test on TAC mice [4], the “effect on cardiac remodeling” value is listed as “no significant effect on cardiac remodeling”.
Consider `COc1ccc(CN2CCNCC2)c(OC)c1OC` [TMZ, trimetazidine], for which the “cardiac function (LVDP) after IR” value in test [5] is reported as “prevented a decline in cardiac function”.
